Some test systems named below: SNB-19; NCI-H23; KM12; RPMI-8226; MCF7; SR; HCT-116; SF-539; CCRF-CEM; OVCAR-8; SW-620; M14; MDA-MB-231; A549; A498; OVCAR-5; SK-MEL-2; TK-10; SK-MEL-28; HOP-92.
Common to all, as to test: NCI-60 cell line screen, 48 h

The results in this text go back to ChEMBL document CHEMBL1201862, “PubChem BioAssay data set” (2004).

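Grown in 96-well plates, cells were treated for 48 hours with each compound at five concentrations. Insufficient inhibition: endpoint recorded as highest concentration tested. At the GI50, growth is halved.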 Calls of active or inactive are those of the source. No stated cut-off is given here; in the data, active = GI50 up to about 1.1 µM and inactive = higher. Bounds are passed on as bounds.

On to `O=C(NC/C=C/Br)NC1CCNc2ccccc21` (stereo not given), for which the GI50 in the assay with SNB-19 was 41.3 µM (inactive); in the assay on NCI-H23, 16.8 µM (inactive); in the assay on KM12, 38.2 µM (inactive); with RPMI-8226 it was 27.2 µM (inactive); with MCF7, 19.3 µM (inactive); in the assay with SR, 35 µM (inactive). The GI50 with HCT-116 is 30.1 µM (inactive); in the assay with SF-539, 20.5 µM (inactive); with CCRF-CEM it was 36.4 µM (inactive); with OVCAR-8 it was 52.7 µM (inactive); in the assay on SW-620, 52.8 µM (inactive); in the assay with M14, 17.7 µM (inactive). Moreover, the GI50 with MDA-MB-231 is 41 µM (inactive); in the assay on A549, 32.2 µM (inactive); in the assay with A498, 31.9 µM (inactive); in the assay with OVCAR-5 it was 55.3 µM (inactive); in the assay with SK-MEL-2, 30.1 µM (inactive); in the assay on TK-10, 42.3 µM (inactive). Moreover, the GI50 in the assay on SK-MEL-28 is 33.7 µM (inactive).
For the compound `O=C(c1ccccc1)n1cc(-c2ccccc2)c2c(=O)nc[nH]c21`, the GI50 in the assay on SNB-19, in the assay on NCI-H23, with KM12, with RPMI-8226, in the assay with MCF7 and in the assay on HCT-116 was > 100 µM (inactive) in each case. For the same compound, the GI50 in the assay on SF-539, in the assay on CCRF-CEM, in the assay with OVCAR-8, with SW-620, with M14 and in the assay on MDA-MB-231 was > 100 µM (inactive) each time. The GI50 with A549, in the assay with HOP-92, in the assay on A498, in the assay on OVCAR-5, with SK-MEL-2 and in the assay on TK-10 was > 100 µM (inactive) each time. Also, the GI50 in the assay with SK-MEL-28 was > 100 µM (inactive).
With `Cc1cc(=O)oc2c(C)c3oc(CBr)c(Br)c3cc12`, the GI50 in the assay on SNB-19 was 31.6 µM (inactive); with NCI-H23, 39 µM (inactive); in the assay on KM12, 26.8 µM (inactive); in the assay with RPMI-8226, 16.3 µM (inactive); in the assay on MCF7 it was 33.1 µM (inactive); in the assay on SR, 27.7 µM (inactive). For the same compound, the GI50 in the assay with HCT-116 was 26.9 µM (inactive); in the assay with SF-539 it was 37.6 µM (inactive); with CCRF-CEM it was 10.4 µM (inactive); with OVCAR-8 it was 24.7 µM (inactive); in the assay with SW-620, 16.9 µM (inactive); in the assay with M14 it was 22 µM (inactive). For the same compound, the GI50 with MDA-MB-231 is 87.3 µM (inactive); with A549, 17.4 µM (inactive); in the assay with OVCAR-5, 27.4 µM (inactive); with SK-MEL-2, 36.1 µM (inactive); in the assay on TK-10, 56.4 µM (inactive); in the assay with SK-MEL-28, 44.4 µM (inactive).
As for `Cc1cc(C)nc(NS(=O)(=O)c2ccc(NNc3c4ccccc4nc4c(C(=O)Nc5ccc(S(=O)(=O)N=C(N)N)cc5)cccc34)cc2)n1`, the GI50 was 61.1 µM (inactive) with SNB-19; 55.8 µM (inactive) with NCI-H23; 34.7 µM (inactive) in the assay with KM12; 93.3 µM (inactive) with RPMI-8226; 76 µM (inactive) with MCF7; 27.5 µM (inactive) in the assay on SR. In addition, the GI50 with HCT-116 is 48 µM (inactive); in the assay on SF-539, 67 µM (inactive); with CCRF-CEM, 34.6 µM (inactive); in the assay with OVCAR-8, 52.4 µM (inactive); with SW-620, 71.6 µM (inactive); in the assay with M14, 97.9 µM (inactive). In addition, the GI50 is 49.1 µM (inactive) with MDA-MB-231; > 100 µM (inactive) with A549; 35.6 µM (inactive) with HOP-92; 25.1 µM (inactive) in the assay on OVCAR-5; 3.64 µM (inactive) in the assay with SK-MEL-2; > 100 µM (inactive) with TK-10. Further, the GI50 in the assay with SK-MEL-28 is 17.6 µM (inactive).
With `COc1ccc(/C=C2\CCC(CNc3ccc(S(N)(=O)=O)cc3)C2=O)cc1` (stereo not given), the GI50 with SNB-19 was 32 µM (inactive); with NCI-H23, 19.7 µM (inactive); in the assay on KM12 it was 11.3 µM (inactive); in the assay on MCF7 it was 1.74 µM (inactive); in the assay on SR, 1.9 µM (inactive); in the assay on HCT-116, 8.65 µM (inactive). The GI50 with SF-539 is 25.7 µM (inactive); in the assay with CCRF-CEM, 2.29 µM (inactive); in the assay on OVCAR-8, 18 µM (inactive); with SW-620, 1.95 µM (inactive); with M14, 15.5 µM (inactive); in the assay with MDA-MB-231, 16.6 µM (inactive). The GI50 in the assay on A549 was > 82.8 µM (inactive); in the assay on HOP-92, 8.53 µM (inactive); in the assay with A498 it was 44.4 µM (inactive); in the assay with OVCAR-5, 21.6 µM (inactive); in the assay on SK-MEL-2, 75.7 µM (inactive); in the assay on TK-10 it was 14.3 µM (inactive). Moreover, the GI50 in the assay on SK-MEL-28 is 16.7 µM (inactive).
Consider `COc1ccc(CCN2CCN(CCCc3ccccc3)CC2)cc1`, for which the GI50 with SNB-19 was > 100 µM (inactive); in the assay with NCI-H23 it was 64.3 µM (inactive); with KM12, 72.6 µM (inactive); with RPMI-8226, > 100 µM (inactive); in the assay with MCF7, > 100 µM (inactive); in the assay with SR, 47.8 µM (inactive). Further, the GI50 with HCT-116 was > 100 µM (inactive); in the assay on SF-539, > 100 µM (inactive); in the assay on CCRF-CEM it was > 100 µM (inactive); with OVCAR-8, > 100 µM (inactive); in the assay with SW-620, > 100 µM (inactive); in the assay with M14 it was 86.9 µM (inactive). For the same compound, the GI50 was > 100 µM (inactive) in the assay on MDA-MB-231; > 100 µM (inactive) in the assay with A549; > 100 µM (inactive) in the assay with A498; 77.1 µM (inactive) with OVCAR-5; > 100 µM (inactive) in the assay with SK-MEL-2; 64.4 µM (inactive) in the assay on TK-10. The GI50 in the assay on SK-MEL-28 was > 100 µM (inactive).
Take `OC(C1CCCCCCCCCC1)C(O)C1CCCCCCCCCC1` (stereo not given): the GI50 was > 100 µM (inactive) in the assay on SNB-19; 43.2 µM (inactive) in the assay on NCI-H23; > 100 µM (inactive) with KM12; > 100 µM (inactive) in the assay with RPMI-8226; > 100 µM (inactive) with MCF7; > 100 µM (inactive) in the assay on SR. In addition, the GI50 in the assay with HCT-116, in the assay with SF-539, in the assay on CCRF-CEM, in the assay on OVCAR-8, with SW-620 and with M14 was > 100 µM (inactive) throughout. Further, the GI50 in the assay with MDA-MB-231, with A549, in the assay on OVCAR-5, in the assay with SK-MEL-2, in the assay on TK-10 and in the assay on SK-MEL-28 was > 100 µM (inactive) each time.
With `O=C1C=CC(=C(c2ccccc2)c2ccc(O)cc2)C=C1`, the GI50 was 13.8 µM (inactive) with SNB-19; 18.7 µM (inactive) in the assay with NCI-H23; 19.4 µM (inactive) in the assay with KM12; 9.12 µM (inactive) in the assay with RPMI-8226; 13.4 µM (inactive) in the assay on MCF7; 7.45 µM (inactive) in the assay with SR. For the same compound, the GI50 with HCT-116 is 50.5 µM (inactive); in the assay with SF-539 it was 13.2 µM (inactive); in the assay with CCRF-CEM it was 1.16 µM (inactive); in the assay on OVCAR-8 it was 16.9 µM (inactive); in the assay on SW-620, 18.1 µM (inactive); in the assay on M14, 24.2 µM (inactive). Also, the GI50 in the assay on MDA-MB-231 was 15.2 µM (inactive); in the assay with A549, 17.4 µM (inactive); in the assay with HOP-92, 18 µM (inactive); in the assay on OVCAR-5, 20.3 µM (inactive); in the assay with SK-MEL-2, 15.8 µM (inactive); in the assay with TK-10 it was 19.2 µM (inactive). The GI50 with SK-MEL-28 was 16.1 µM (inactive).
Turning to `NCCCNc1ccc2c3c(nn2CCNCCO)-c2c(O)ccc(O)c2C(=O)c13`, the GI50 in the assay with SNB-19 is 0.354 µM (active); with NCI-H23, 1.25 µM (inactive); with KM12, 3.78 µM (inactive); in the assay on RPMI-8226, 1.2 µM (inactive); in the assay on MCF7, 0.418 µM (active); in the assay on SR, 0.253 µM (active). Besides, the GI50 in the assay on SW-620 is 1.15 µM (inactive); with M14 it was 3.2 µM (inactive); in the assay on MDA-MB-231, 3.84 µM (inactive); with A498 it was 1.82 µM (inactive); in the assay on OVCAR-5, 4.28 µM (inactive); in the assay with TK-10 it was 4.2 µM (inactive).
Regarding `CC(NC(=O)Cc1ccc(OP(=O)(OCc2ccc([N+](=O)[O-])o2)N(C)CCCCCl)cc1)c1ccc(OCC2CCCCC2)c(C(N)=O)c1` (stereo not given), the GI50 in the assay with SNB-19 is 3.3 µM (inactive); with NCI-H23, 2.08 µM (inactive); in the assay with KM12 it was 2.4 µM (inactive); with RPMI-8226, 0.574 µM (active); in the assay with MCF7, 2.52 µM (inactive); in the assay on SR it was 1.48 µM (inactive). Besides, the GI50 is 1.85 µM (inactive) in the assay on HCT-116; 2.02 µM (inactive) in the assay with SF-539; 0.906 µM (active) with CCRF-CEM; 3.6 µM (inactive) with OVCAR-8; 3.45 µM (inactive) in the assay on SW-620; 2.12 µM (inactive) in the assay on M14. The GI50 with MDA-MB-231 is 2.08 µM (inactive); in the assay with A549 it was 1.87 µM (inactive); with A498 it was 3.01 µM (inactive); in the assay on OVCAR-5, 3.01 µM (inactive); with SK-MEL-2, 2.26 µM (inactive); in the assay on TK-10, 3.22 µM (inactive). For the same compound, the GI50 in the assay on SK-MEL-28 was 1.65 µM (inactive).
`CC(C)(C)OC(=O)N1CCCC1C(=O)NCCNc1ccc(NCCNC(=O)C2CCCN2C(=O)OC(C)(C)C)c2c1C(=O)c1ccccc1C2=O` (stereo not given): the GI50 in the assay with SNB-19 was < 0.01 µM (active); with NCI-H23, 15.6 µM (inactive); with KM12 it was 12.2 µM (inactive); with RPMI-8226, < 0.01 µM (active); in the assay with MCF7 it was 16.2 µM (inactive); with SR, 14.3 µM (inactive). The GI50 with HCT-116 is 13.2 µM (inactive); in the assay on SF-539, 16.1 µM (inactive); in the assay on CCRF-CEM, > 100 µM (inactive); in the assay with OVCAR-8, 5.83 µM (inactive); in the assay on SW-620, 13.8 µM (inactive); with M14 it was 15.8 µM (inactive). Further, the GI50 with MDA-MB-231 was 13.2 µM (inactive); in the assay with A549, 15.8 µM (inactive); in the assay with HOP-92, 13.8 µM (inactive); in the assay with OVCAR-5, 16.7 µM (inactive); in the assay with SK-MEL-2 it was 20.7 µM (inactive); in the assay with TK-10 it was 19.1 µM (inactive). Further, the GI50 in the assay with SK-MEL-28 is 14.3 µM (inactive).
